We go through 13 compounds from ChEMBL document CHEMBL4184281, “Pharmacology and in vivo efficacy of pyridine-pyrimidine amides that inhibit microtubule polymerization” (Bioorg Med Chem Lett, 2018).

A short description of series [1]: in vitro. The note with it: human, Caco-2.
Description: Apparent intrinsic permeability in human Caco2 cells from basolateral to apical side after 120 mins by mass spectrometry
Series [2] in a line: in vitro. The note with it: human, Caco-2. The source holds these as a separate data set.
Description: Apparent intrinsic permeability in human Caco2 cells from apical to basolateral side after 120 mins by mass spectrometry
A short description of series [3]: Efflux ratio of apparent intrinsic permeability in human Caco2 cells after 120 mins by mass spectrometry. In kind it is ADME, cell-based. The note with it: Caco-2. (Passage across Caco-2 layers is used to estimate intestinal permeability.)
The nature of series [4]: Stability in human plasma assessed as parent compound remaining after 2 hrs relative to initial time. Particulars: read-out: Stability. Type of series: ADME, cell-free.
A short description of series [5]: Stability in human plasma assessed as parent compound remaining after 4 hrs relative to initial time. Particulars: read-out: Stability. Type of series: ADME, cell-free.
Series [6] is described as follows: Stability in human plasma assessed as parent compound remaining after 75 mins relative to initial time. Type of series: ADME, cell-free. The note with it: read-out: Stability.
The subject of series [7] is Hs-578T. Kind of series: Antiproliferative activity against paclitaxel-resistant human Hs 578T cells 10C clone up to 1000 nM after 72 hrs by ATPlite assay. In kind it is functional, cell-based.
Series [8] has as its system BT-549. Kind of series: Antiproliferative activity against human BT549 cells up to 1000 nM after 72 hrs by ATPlite assay. Type of series: functional, cell-based. Background: In ATP-based viability assays light output follows the ATP content of the culture.
Series [9] has as its system MDA-MB-436. Put plainly: Antiproliferative activity against paclitaxel-resistant human MDA-MB-436 cells 20A clone up to 1000 nM after 72 hrs by ATPlite assay. Type of series: functional, cell-based.
Series [10] has as its system MDA-MB-436. Put plainly: Antiproliferative activity against paclitaxel-resistant human MDA-MB-436 cells 20B clone up to 1000 nM after 72 hrs by ATPlite assay. Type of series: functional, cell-based.
Series [11] relates to MDA-MB-436. Kind of series: Antiproliferative activity against human MDA-MB-436 cells up to 1000 nM after 72 hrs by ATPlite assay. In kind it is functional, cell-based.
In series [12] the test system is Hs-578T. Kind of series: Antiproliferative activity against human Hs 578T cells up to 1000 nM after 72 hrs by ATPlite assay. Type of series: functional, cell-based.
Series [13] concerns BT-549. Kind of series: Antiproliferative activity against paclitaxel-resistant human BT549 cells 10A clone up to 1000 nM after 72 hrs by ATPlite assay. In kind it is functional, cell-based.
In series [14] the test system is Hs-578T. Put plainly: Antiproliferative activity against paclitaxel-resistant human Hs 578T cells 20B clone up to 1000 nM after 72 hrs by ATPlite assay. Type of series: functional, cell-based.
The subject of series [15] is Breast carcinoma cell. Put plainly: Antitumor activity against chemo-refractory disease patient-derived breast cancer cells xenografted in NOD/SCID mouse assessed as tumor growth inhibition at 20 mg/kg, iv administered weekly for 15 days. Type of series: functional, organism-based. Particulars: Homo sapiens.
Series [16] in a line: Tmax in CD-1 mouse administered as single po dose by mass spectrometry. In kind it is ADME, organism-based. Particulars: in vivo.
Series [17] relates to SNU-16. Kind of series: Antitumor activity against human SNU16 cells xenografted in nude BALB/c mouse assessed as tumor growth inhibition relative to control. Type of series: functional. Background: In xenograft studies the graft and the host belong to different species.
Series [18] is described as follows: Toxicity in mouse. Type of series: organism-based. Particulars: in vivo.
A short description of series [19]: Unbound fraction in plasma (unknown origin). In kind it is ADME, cell-free.
Series [20] in a line: Half life in mouse liver microsomes. Type of series: ADME, microsome.
The target in series [21] is Cytochrome P450 2D6 (Homo sapiens, UniProt P10635). Kind of series: Inhibition of CYP2D6 (unknown origin). In kind it is ADME.
Sequence of Cytochrome P450 2D6 (P10635 whole entry): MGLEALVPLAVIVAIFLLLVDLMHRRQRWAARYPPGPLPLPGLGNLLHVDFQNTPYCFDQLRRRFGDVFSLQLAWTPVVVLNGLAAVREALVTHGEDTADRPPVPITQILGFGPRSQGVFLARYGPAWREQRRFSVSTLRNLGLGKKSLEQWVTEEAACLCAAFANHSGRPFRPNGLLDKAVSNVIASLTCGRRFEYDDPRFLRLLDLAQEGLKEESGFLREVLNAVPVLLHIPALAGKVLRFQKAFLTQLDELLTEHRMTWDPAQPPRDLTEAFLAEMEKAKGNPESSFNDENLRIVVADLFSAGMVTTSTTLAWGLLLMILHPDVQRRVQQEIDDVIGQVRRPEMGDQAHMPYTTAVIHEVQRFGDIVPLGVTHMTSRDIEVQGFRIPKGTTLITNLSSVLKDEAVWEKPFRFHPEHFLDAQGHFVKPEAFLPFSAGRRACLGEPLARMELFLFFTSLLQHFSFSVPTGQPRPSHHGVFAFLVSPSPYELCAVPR
Series [22] is described as follows: Half life in human liver microsomes. Type of series: ADME, microsome.
Series [23] is described as follows: Drug recovery in plasma (unknown origin). In kind it is ADME, cell-free.
Series [24] can be described thus: Stability in human plasma assessed as parent compound remaining after 8 hrs relative to initial time. The note with it: read-out: Stability. Type of series: ADME, cell-free.
A short description of series [25]: Half life in dog liver microsomes. In kind it is ADME, Canis lupus familiaris, microsome.
Series [26] has as its system Mus musculus. Kind of series: Toxicity in nude BALB/c mouse xenografted with human A2780 cells assessed as change in body weight at 20 mg/kg, po qd measured up to 12 days post dose. Type of series: organism-based. Particulars: in vivo, 288 h.
Series [27] has as its system A2780. Kind of series: Antitumor activity against human A2780 cells xenografted in nude BALB/c mouse assessed as tumor growth inhibition at 20 mg/kg, po qd measured up to 12 days post dose. In kind it is functional, organism-based.
The target in series [28] is Cytochrome P450 3A4 (Homo sapiens, UniProt P08684). Put plainly: Inhibition of CYP3A4 (unknown origin). In kind it is ADME.
Sequence of Cytochrome P450 3A4 (P08684 whole entry): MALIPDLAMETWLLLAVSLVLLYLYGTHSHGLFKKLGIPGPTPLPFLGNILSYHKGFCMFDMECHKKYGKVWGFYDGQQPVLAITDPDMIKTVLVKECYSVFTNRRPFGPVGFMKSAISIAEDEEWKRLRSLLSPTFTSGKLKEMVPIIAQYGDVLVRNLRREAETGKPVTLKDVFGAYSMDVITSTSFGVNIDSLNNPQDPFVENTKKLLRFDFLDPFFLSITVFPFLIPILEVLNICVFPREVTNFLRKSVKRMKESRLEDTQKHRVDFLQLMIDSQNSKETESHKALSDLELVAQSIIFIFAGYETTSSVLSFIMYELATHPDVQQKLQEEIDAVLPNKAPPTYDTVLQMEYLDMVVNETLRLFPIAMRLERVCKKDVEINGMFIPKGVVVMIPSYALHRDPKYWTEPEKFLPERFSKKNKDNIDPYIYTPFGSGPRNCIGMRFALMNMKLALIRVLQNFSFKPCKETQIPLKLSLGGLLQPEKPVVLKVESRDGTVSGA
Series [29] in a line: Stability in human plasma assessed as parent compound remaining after 24 hrs relative to initial time. Type of series: ADME, cell-free. Particulars: read-out: Stability.
Series [30] is described as follows: Toxicity in mouse administered as single po dose. Type of series: organism-based. Particulars: in vivo.
Series [31] has as its target Cytochrome P450 2C9 (Homo sapiens, UniProt P11712). Kind of series: Inhibition of CYP2C9 (unknown origin). Type of series: ADME.
Series [32] is described as follows: Half life in rat liver microsomes. In kind it is ADME, microsome.
In series [33] the target is Cytochrome P450 2C19 (Homo sapiens, UniProt P33261). Put plainly: Inhibition of CYP2C19 (unknown origin). Type of series: ADME.
Sequence of Cytochrome P450 2C19 (P33261 whole entry): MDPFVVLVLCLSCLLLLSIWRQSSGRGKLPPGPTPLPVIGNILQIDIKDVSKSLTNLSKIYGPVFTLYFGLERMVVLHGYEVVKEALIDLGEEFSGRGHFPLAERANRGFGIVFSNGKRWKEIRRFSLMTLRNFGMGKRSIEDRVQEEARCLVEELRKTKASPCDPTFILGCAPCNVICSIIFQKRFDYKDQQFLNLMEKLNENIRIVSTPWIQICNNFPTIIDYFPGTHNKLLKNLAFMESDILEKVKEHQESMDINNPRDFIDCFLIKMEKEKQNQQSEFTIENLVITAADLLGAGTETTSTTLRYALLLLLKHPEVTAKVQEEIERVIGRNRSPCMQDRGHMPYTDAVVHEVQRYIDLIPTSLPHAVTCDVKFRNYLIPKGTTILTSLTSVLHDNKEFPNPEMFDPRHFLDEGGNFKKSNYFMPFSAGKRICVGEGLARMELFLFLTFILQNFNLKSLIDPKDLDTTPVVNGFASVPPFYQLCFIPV
The nature of series [34]: Protein binding in plasma (unknown origin). In kind it is ADME, cell-free. Particulars: read-out: PPB (converted).
The target in series [35] is T1, Cytochrome P450 1A2 (Homo sapiens, UniProt P05177).
T1 sequence (P05177 whole entry): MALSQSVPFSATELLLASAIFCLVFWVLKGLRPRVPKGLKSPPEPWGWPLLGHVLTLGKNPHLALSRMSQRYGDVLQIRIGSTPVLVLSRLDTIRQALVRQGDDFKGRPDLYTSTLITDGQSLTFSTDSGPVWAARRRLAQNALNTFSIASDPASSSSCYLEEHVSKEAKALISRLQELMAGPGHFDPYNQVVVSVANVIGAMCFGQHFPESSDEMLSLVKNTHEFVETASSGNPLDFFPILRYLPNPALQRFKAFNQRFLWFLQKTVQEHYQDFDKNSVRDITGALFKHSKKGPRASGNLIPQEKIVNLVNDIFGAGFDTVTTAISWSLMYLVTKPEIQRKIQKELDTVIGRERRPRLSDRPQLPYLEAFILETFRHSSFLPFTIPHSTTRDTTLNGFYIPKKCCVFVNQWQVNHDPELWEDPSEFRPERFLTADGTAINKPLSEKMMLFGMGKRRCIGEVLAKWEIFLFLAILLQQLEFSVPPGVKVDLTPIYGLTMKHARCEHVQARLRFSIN
Put plainly: Inhibition of CYP1A2 (unknown origin). In kind it is ADME.

Series [36] in a line: Tmax in rat administered as single po dose by mass spectrometry. In kind it is ADME, organism-based. The note with it: in vivo.

Molecules are shown by their SMILES. pIC50: −log10 of the molar value. Activity calls are given as the source filed them. No cut-off for these calls is given here. A value given as a limit tells only on which side of the number the result lay.

Sequence of Cytochrome P450 2C9 (P11712 whole entry): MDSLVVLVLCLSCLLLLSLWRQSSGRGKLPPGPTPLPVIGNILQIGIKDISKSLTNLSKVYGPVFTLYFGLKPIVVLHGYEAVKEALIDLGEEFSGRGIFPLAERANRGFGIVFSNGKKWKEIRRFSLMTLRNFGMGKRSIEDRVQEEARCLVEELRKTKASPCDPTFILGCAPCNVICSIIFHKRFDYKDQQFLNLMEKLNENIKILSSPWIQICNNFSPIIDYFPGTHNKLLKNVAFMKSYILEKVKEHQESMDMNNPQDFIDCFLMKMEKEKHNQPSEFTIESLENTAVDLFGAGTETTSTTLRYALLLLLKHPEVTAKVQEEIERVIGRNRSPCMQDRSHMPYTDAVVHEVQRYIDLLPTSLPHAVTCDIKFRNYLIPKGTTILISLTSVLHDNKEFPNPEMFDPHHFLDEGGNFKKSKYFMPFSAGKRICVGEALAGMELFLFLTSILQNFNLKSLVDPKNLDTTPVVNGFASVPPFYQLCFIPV

What is called Papp B→A is how fast a substance crosses the layer from the basolateral side. In general, Papp A→B refers to how fast a substance crosses the layer from the apical side. A lower Papp A→B goes with slow passage. A word on the efflux ratio: it is the permeability from basolateral to apical divided by that in the opposite direction, in the common usage. Turning to `CC(C)NCC(O)COc1cccc2ccccc12` (configuration not stated) [PROPRANOLOL], in series [1], the Papp B→A at 2 h worked out at 21.1 ×10⁻⁶ cm/s. Moreover, the Papp A→B at 2 h in series [2] is 21.2 ×10⁻⁶ cm/s. Besides, in series [3], the efflux ratio at 2 h came to 0.99.
Consider `CC(C)[N+](C)(CCOC(=O)C1c2ccccc2Oc2ccccc21)C(C)C` [PROPANTHELINE], for which the remaining at 2 h in series [4] was found to be 5.16%. The remaining at 4 h in series [5] came to 0.34%. Also, the remaining at 1.25 h in series [6] is 13.9%.
The compound `COC(=O)c1ccccc1-c1c2ccc(=N)cc-2oc2cc(N)ccc12.Cl` [RHODAMINE123] displayed a Papp B→A at 2 h in series [1] of 7.17 ×10⁻⁶ cm/s. Further, the Papp A→B at 2 h in [2] came to 0.61 ×10⁻⁶ cm/s. The efflux ratio at 2 h in series [3] was determined as 11.7.
In the case of `CC(=O)O[C@H]1C(=O)[C@@]2(C)[C@H]([C@H](OC(=O)c3ccccc3)[C@]3(O)C[C@H](OC(=O)[C@H](O)[C@@H](NC(=O)c4ccccc4)c4ccccc4)C(C)=C1C3(C)C)[C@]1(OC(C)=O)CO[C@@H]1C[C@@H]2O`, the result in series [7], in [9], in series [10], in series [13] and in series [14] was inactive. In addition, the outcome in series [8], in series [11] and in series [12] was Active. Moreover, in series [15], the TGI entry is “inactive”.
A word on the Tmax: it is the time at which the peak concentration occurs. With `Cc1ncc(C(=O)Nc2ccc(-c3cccc(C4CC4)c3)cn2)cn1`, the time to peak (Tmax) in series [16] is at most 15 min. The TGI in series [17] worked out at 73%. In series [18], the MTD is at most 6 mg/kg.
The corresponding values for `O=C(Nc1ccc(-c2cccc(C3CC3)c2)cn1)c1cncnc1` are at most 15 min, 74% and at most 6 mg/kg.
The term half-life denotes how long it takes for the measured level to halve. Higher therefore signals slow loss. Broadly, the pIC50 is the negative decadic logarithm of the IC50, by convention in mol/L. Take `Cc1ncc(C(=O)Nc2ccc(-c3ccsc3)cn2)cn1`: the remaining at 2 h in series [4] was 92.2%. Besides, the fraction unbound in [19] and in series [34] was 0.0507 throughout. Besides, the half-life in [20] worked out at 27.3 min; in series [22] it was 7.5 min; in series [25], 35.2 min; in series [32], 25.9 min. For the same compound, the pIC50 in series [21], in series [28], in series [31], in series [33] and in series [35] was below 4.52 in each case. This compound also returned a Drug recovery in series [23] of 93.56%. For the same compound, the remaining at 8 h in [24] came to 71.6%. In addition, the Activity entry in [26] was “Non-Toxic”. Besides, the TGI entry in [27] was “Active”. For the same compound, the TGI in series [17] is 135%. Besides, the remaining at 4 h in series [5] stood at 86.9%. Further, the remaining at 24 h in series [29] is 49%. Further, the results for the MTD in [30] and in series [18] were at most 20 mg/kg and at most 6 mg/kg, respectively. Moreover, the remaining at 1.25 h in series [6] came to 91.7%.
As for `CNC(=C[N+](=O)[O-])NCCSCc1ccc(CN(C)C)o1` [RANITIDINE], the Papp B→A at 2 h in series [1] is 2.83 ×10⁻⁶ cm/s. The compound further displayed a Papp A→B at 2 h in series [2] of 0.87 ×10⁻⁶ cm/s. Moreover, the efflux ratio at 2 h in [3] was found to be 3.24.
As for `Cc1ccc(C(=O)Nc2ccc(-c3cccc(C4COC4)c3)cn2)cn1`, the Tmax in [16] is at most 15 min. For the same compound, the TGI in series [17] was 69%. This compound yielded an MTD in series [18] of at most 6 mg/kg.
Consider `O=C(Nc1ccc(-c2cccc(Cl)c2)cn1)c1cncnc1`, for which the TGI in [17] is recorded as 66%. The MTD in [18] was at most 6 mg/kg.
With `CC(=O)CC(c1ccccc1)c1c(O)c2ccccc2oc1=O` (configuration not stated) [WARFARIN], the Drug recovery in series [23] is reported as 98.63%.
In the case of `Cc1ncc(C(=O)Nc2ccc(-c3cccc(OC4CC4)c3)cn2)cn1`, the remaining at 2 h in [4] came to 81.1%. Further, the fraction unbound in series [19] and in [34] was 0.0061 each time. The half-life turned out to be 13.7 min in series [20], 144 min in series [22], 20.6 min in series [25] and 10.9 min in series [32]. For the same compound, the Tmax in [16] was at most 15 min; in [36], 15 min. Besides, the pIC50 in [21], in [28], in series [31], in series [33] and in [35] was below 4.52 each time. This compound registered a Drug recovery in series [23] of 79.64%. The remaining at 8 h in series [24] is 74.1%. The Activity result in [26] was “Non-Toxic”. Besides, the TGI entry in [27] is “Active”. Besides, the TGI in [17] is 100%. In addition, the remaining at 4 h in series [5] was 91.5%. In addition, in series [29], the remaining at 24 h is 89.7%. Also, the MTD in series [30] is at most 20 mg/kg; in [18] it was at most 6 mg/kg. Moreover, in [6], the remaining at 1.25 h is 89.4%.
Regarding `Cc1ncc(C(=O)Nc2ccc(-c3cccc(NC4CC4)c3)cn2)cn1`, in series [16], the time of peak concentration (Tmax) was at most 15 min. Besides, in [17], the TGI is reported as 67%. The compound also registered an MTD in series [18] of at most 6 mg/kg.
